Measured values from BindingDB's records for doi:10.1016/j.bmcl.2005.06.091 (Schering-Plough Research Institute, 2005).
Numbered stars: 1 amine (or outer) side, 2 acyl side, 3 side chain; on linkers, the order of the positions; unused ones are H or OH. Square brackets hold non-standard residues; d marks the D form. Peptide text beside a SMILES is read from it. * marks the point of attachment. Isobutyloxycarbonyl = CC(C)COC(=O)*; X1 = CCCC(N[*:1])C(=O)C(=O)[*:2]

Molecular target: Genome polyprotein (Hepatitis C virus genotype 1a (isolate H77), UniProt P27958)
Experiment: Continuous Spectrophotometric Assay
Conditions: pH 6.5; 30 °C
Protocol: Proteolytic cleavage of the ester linkage between the Nva (L-norvaline) and the chromophore (PAP) was monitored for change in absorbance at 370 nm. Initial velocities were determined using linear regression and kinetic constants were obtained by fitting the data to the Michaelis-Menten equation.

Chain of Genome polyprotein (P27958 1027-1657 limits assumed): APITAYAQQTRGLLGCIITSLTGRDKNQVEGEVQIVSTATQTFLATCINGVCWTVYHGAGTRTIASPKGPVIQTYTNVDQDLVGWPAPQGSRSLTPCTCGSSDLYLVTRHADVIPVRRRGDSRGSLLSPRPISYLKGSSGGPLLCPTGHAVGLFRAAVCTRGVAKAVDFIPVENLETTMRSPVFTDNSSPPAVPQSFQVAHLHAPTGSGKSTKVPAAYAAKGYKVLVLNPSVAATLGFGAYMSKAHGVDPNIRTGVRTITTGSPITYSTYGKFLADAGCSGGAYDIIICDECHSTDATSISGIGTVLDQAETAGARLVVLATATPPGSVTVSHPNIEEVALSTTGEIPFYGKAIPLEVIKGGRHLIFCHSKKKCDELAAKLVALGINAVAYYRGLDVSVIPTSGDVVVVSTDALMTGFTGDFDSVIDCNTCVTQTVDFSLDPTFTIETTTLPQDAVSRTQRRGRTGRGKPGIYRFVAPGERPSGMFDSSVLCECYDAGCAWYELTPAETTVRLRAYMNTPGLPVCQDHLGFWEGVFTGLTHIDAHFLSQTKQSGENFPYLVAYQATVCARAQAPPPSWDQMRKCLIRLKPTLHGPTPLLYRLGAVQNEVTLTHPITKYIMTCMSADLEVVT

Row | SMILES | Ki
1 | CCCC(NC(=O)[C@@H]1CCCN1C(=O)[C@@H](NC(=O)OCC(C)C)C(C)C)C(=O)C(=O)NCC(=O)N[C@@H](CC(=O)O)C(=O)O (stereo partly drawn) [1,4-disodium (2S)-2-[2-(3-{[(2S)-1-[(2S)-3-methyl-2-{[(2-methylpropoxy)carbonyl]amino}butanoyl]pyrrolidin-2-yl]formamido}-2-oxohexanamido)acetamido]butanedioate] (Isobutyloxycarbonyl-VP[X1]GD-OH) | > 100 µM
2 | CCCC(NC(=O)[C@@H]1CCCN1C(=O)[C@@H](NC(=O)OCC(C)C)C(C)C)C(=O)C(=O)NCC(=O)N[C@@H](CCC(=O)O)C(=O)O (stereo partly drawn) [1,5-dilithio (2S)-2-[2-(3-{[(2S)-1-[(2S)-3-methyl-2-{[(2-methylpropoxy)carbonyl]amino}butanoyl]pyrrolidin-2-yl]formamido}-2-oxohexanamido)acetamido]pentanedioate] (Isobutyloxycarbonyl-VP[X1]GE-OH) | > 100 µM
